According to patent US4661516A, “Diaminocyclohexane platinum complexes” (Research Corporation, priority 1984, dated 1987):

Assays:
[1] = Acute lethality, single intraperitoneal injection (Table XIII); format: in vivo
[2] = system: L1210 leukemia cells (L1210/PDD); assay: In vitro cytotoxicity / cross-resistance, L1210/PDD (L1210/DDP) cells resistant to cisdiamminedichloroplatinum(II); format: cell-based; settings: L1210/DDP, Tables VII and VIII; 5760 min
Procedure: Four ml of cell suspension were added to culture tubes and the appropriate concentration (0.01, 0.1, 1 or 10 μg/ml final drug concentration) was added. After 96 hours the cell concentration of control and experimental cultures were calculated with the aid of a Coulter Counter® Model ZBf and the percent inhibition calculated.

[3] = BUN (RUN [sic]) with the acute lethality data (Table XIII); format: in vivo; settings: mean + 1 S.D.
L1210/0 leukemia cells = assay: In vivo anti-tumor activity, L1210 (L1210/0), multiple i.p. doses; parameters: species or system BDF1 mice; settings: for LTS: survivors/treated 50 days after treatment; for Long Term Survivors: days 1, 5 and 9, at maximal effective dose, alive 60 days after tumor inoculation; for Maximal Effective Dose: i.p. on days 1, 5 and 9
Procedure: BDF1 mice were inoculated intraperitoneally with 10^6 L1210 cells. About 24 hours after inoculation of the cells, the mice were injected intraperitoneally with varying dosages of complexes of the present invention. Six mice were used for each dosage level in each experiment with an equal number of control mice inoculated with 10^6 L1210 cells and left untreated with a given complex. The results [%T/C=(survival time of treated animals/survival time of control animals)×100] are set forth below. Long term survival signifies that animals were alive 60 days after inoculation with L1210 cells.
The procedure of Example 16 was repeated except that the treated animals were injected with multiple doses of the complex as indicated below:
The anti-tumor activity of compound number 3 was evaluated against cells sensitive to (L1210/0) and resistant to (L1210/PDD) the standard platinum complex cis-diamminedichloroplatinum(II).
The following complexes were tested in vivo oncolytic activity following 3 i.p. injections (days 1, 5, 9) according to the protocol described in Examples 16 and 17.
BDF1 mice were innoculated intraperitoreally with 10^6 L1210 leukemia cells and treatment was begun on the next day (day 1). Two treatment schedules, i.e. single i.p. injection of the drug and i.p. injections on days 1, 5 and 9 according to the protocol described in Examples 16 and 17 were used.

L1210 cells = assay: In vivo anti-tumor activity, L1210, single i.p. injection; parameters: species or system BDF1 mice; settings: for Maximal Effective Dose: single i.p. injection; for % T/C: single i.p.
Procedure: About 24 hours after inoculation of the cells, the mice were injected intraperitoneally with varying dosages of complexes of the present invention. […] Long term survival signifies that animals were alive 60 days after inoculation with L1210 cells.

[4] = system: Wild type L1210 leukemic cells; assay: In vitro cytotoxicity, wild type L1210 leukemic cells (L1210/0); format: cell-based; settings: for ID50: L1210, 72 hours incubation; for ID50 L1210/0: L1210/0, protocol of Example 14, Tables VII and VIII, 4320 min
Procedure: Four ml of cell suspension (10^5 cells/ml) are added to culture tubes and the appropriate concentration (0.01, 0.1, 1 or 10 μg/ml final concentration) of drug added to the culture tubes. After 72 hours of incubation, the cell concentration of control and experimental cultures are determined with the aid of a Coulter Counter® Model ZBf and the percent inhibition calculated. […]

B16 cells = assay: Melanotic melanoma test, i.p. inoculated B16 melanoma; format: in vivo, BDF1 mice; settings: for Maximal Effective Dose: B16, i.p. days 1, 5 and 9; for % T/C / Long Term Survivors: B16, i.p. days 1, 5 and 9, at maximal effective dose; for Long Term Survivors: 60 days
Procedure: The animals used were BDF1 mice, all of the same sex, weighing a minimum of 18 g. and all within a 4 g. weight range. There were 6 animals per test group. […] The test compounds were administered intraperitoneally on days 1, 5 and 9 at various doses. The animals were weighed and survivors were recorded on a regular basis for 60 days. The median survival time and the ratio of survival time for treated (T)/control (C) animals were calculated. […] The criterion for efficacy is T/C×100≥125%.

[5] = 6.25 mg/kg i.p., days 1, 5, 9, 30 day observation period
[6] = 12.5 mg/kg i.p., days 1, 5, 9, 30 day observation period
[7] = 25 mg/kg i.p., days 1, 5, 9, 30 day observation period
[8] = Tables X and XI, i.p. on days 1, 5 and 9, at maximal effective dose
[9] = Table IX, at maximal effective dose

SMILES | LD10 [1] [mg/kg] | LD50 [1] [mg/kg] | LD90 [1] [mg/kg] | ID50 L1210/DDP [2] [µg/mL] | RUN [3] [mg/100 ml] | % T/C (L1210/0 leukemia cells; [5]) [%] | % T/C (L1210/0 leukemia cells; [6]) [%] | LTS (L1210/0 leukemia cells; 12.5 mg/kg, days 1, 5, 9) | % T/C (L1210/0 leukemia cells; [7]) [%] | LTS (L1210/0 leukemia cells; 25 mg/kg, days 1, 5, 9) | Long Term Survivors (L1210/0 leukemia cells; Tables X and XI) | Maximal Effective Dose (L1210/0 leukemia cells; Tables X and XI) [mg/kg] | % T/C (L1210/0 leukemia cells; [8]) [%] | Maximal Effective Dose (L1210 cells; Table IX) [mg/kg] | % T/C (L1210 cells; [9]) [%] | ID50 [4] [µg/mL] | ID50 L1210/0 [4] [µg/mL] | Maximal Effective Dose (B16 cells) [mg/kg] | % T/C (B16 cells) [%] | Long Term Survivors (B16 cells) | other results
NC1CCCCC1N.O.O.O=C([O-])CN(CC(=O)[O-])c1ccccc1.[Pt+2] [Compound 37, N--Phenyliminodiacetato(DACH)Pt(II).2H2 O] | 56 | 81 | 135 | 2.6 | 18 ± 1 | 246 | 298 | 5/6 | 242 | 1/6 | 4/6 | 12.5 | 537 | 12.5 | 172 | 1.0 | 2.3 | 25 | 215 | 0/6 | LTS (L1210/0 leukemia cells; 6.25 mg/kg, days 1, 5, 9): 3/6; % T/C (L1210 cells; 12.5 mg/kg): 172%; % T/C (L1210 cells; 25 mg/kg): 156%; % T/C (L1210 cells; 50 mg/kg): 108%
NC1CCCCC1N.O=C([O-])CN(CC(=O)[O-])Cc1ccccc1.[Pt+2] [Compound 38, N--Benzyliminodiacetato(DACH)Pt(II)] | 81 | 140 | 210 | 0.8 | 27 ± 3 | 277 | 287 | 1/6 | 240 | 2/6 | 2/6 | 12.5 | 397 | 25 | 170 | 2.3 | 1.0 | 12.5 | 207 | 1/6 | % T/C (L1210 cells; 12.5 mg/kg): 123%; % T/C (L1210 cells; 25 mg/kg): 170%; % T/C (L1210 cells; 50 mg/kg): 158%
NC1CCCCC1N.O.O.O=C([O-])CN(CCO)CC(=O)[O-].[Pt+2] [Compound 39, N--(2-Hydroxyethyl)-iminodiacetato(DACH)Pt(II).2H2 O] | 63 | 150 | 301 | 0.9 | 18 ± 2 | – | – | – | – | – | 4/6 | 25 | 450 | 25 | 180 | 3.0 | 0.7 | 25 | 196 | 2/6 | –
